Laboratory results: ChEMBL document CHEMBL3734705, “Synthesis and in vitro cytotoxicity of novel C-12 substituted-14-deoxy-andrographolide derivatives as potent anti-cancer agents” (2015)

Assays:
[1] = Cytotoxicity against human MOLT4 cells assessed as growth level at 10 uM after 48 hrs by SRB assay; format: functional, MOLT-4
SR = assay: Cytotoxicity against human SR cells assessed as growth level at 10 uM after 48 hrs by SRB assay; format: functional
A549 = assay: Cytotoxicity against human A549 cells assessed as growth level at 10 uM after 48 hrs by SRB assay; format: functional
NCI-H226 = assay: Cytotoxicity against human NCI-H226 cells assessed as growth level at 10 uM after 48 hrs by SRB assay; format: functional
NCI-H460 [2] = assay: Cytotoxicity against human NCI-H460 cells assessed as growth level at 10 uM after 48 hrs by SRB assay; format: functional
[3] = Cytotoxicity against human HCT116 cells assessed as growth level at 10 uM after 48 hrs by SRB assay; format: functional, HCT-116
KM12 [4] = assay: Cytotoxicity against human KM12 cells assessed as growth level at 10 uM after 48 hrs by SRB assay; format: functional
[5] = Cytotoxicity against human SNB19 cells assessed as growth level at 10 uM after 48 hrs by SRB assay; format: functional, SNB-19
[6] = Cytotoxicity against human SNB75 cells assessed as growth level at 10 uM after 48 hrs by SRB assay; format: functional, SNB-75
SK-MEL-28 [7] = assay: Cytotoxicity against human SK-MEL-28 cells assessed as growth level at 10 uM after 48 hrs by SRB assay; format: functional
[8] = Cytotoxicity against human OVCAR3 cells assessed as growth level at 10 uM after 48 hrs by SRB assay; format: functional, OVCAR-3
ACHN = assay: Cytotoxicity against human ACHN cells assessed as growth level at 10 uM after 48 hrs by SRB assay; format: functional
[9] = Cytotoxicity against human Caki1 cells assessed as growth level at 10 uM after 48 hrs by SRB assay; format: functional, CAKI-1
SN12C = assay: Cytotoxicity against human SN12C cells assessed as growth level at 10 uM after 48 hrs by SRB assay; format: functional
[10] = Cytotoxicity against human DU145 cells assessed as growth level at 10 uM after 48 hrs by SRB assay; format: functional, DU-145
MCF7 = assay: Cytotoxicity against human MCF7 cells assessed as growth level at 10 uM after 48 hrs by SRB assay; format: functional
MDA-MB-231 = assay: Cytotoxicity against human MDA-MB-231 cells assessed as growth level at 10 uM after 48 hrs by SRB assay; format: functional
[11] = Cytotoxicity against human BT549 cells assessed as growth level at 10 uM after 48 hrs by SRB assay; format: functional, BT-549
T47D [12] = assay: Cytotoxicity against human T47D cells assessed as growth level at 10 uM after 48 hrs by SRB assay; format: functional
K562 = assay: Cytotoxicity against human K562 cells assessed as growth inhibition at 10 uM after 48 hrs by SRB assay; format: functional; details: K562, 48 h, read-out: GI
EKVX = assay: Cytotoxicity against human EKVX cells assessed as growth inhibition at 10 uM after 48 hrs by SRB assay; format: functional; details: read-out: GI
[13] = Cytotoxicity against human HOP92 cells assessed as growth inhibition at 10 uM after 48 hrs by SRB assay; format: functional; details: HOP-92, 48 h, read-out: GI
NCI-H460 [14] = assay: Cytotoxicity against human NCI-H460 cells assessed as growth inhibition at 10 uM after 48 hrs by SRB assay; format: functional; details: NCI-H460, 48 h, read-out: GI
NCI-H522 = assay: Cytotoxicity against human NCI-H522 cells assessed as growth inhibition at 10 uM after 48 hrs by SRB assay; format: functional; details: NCI-H522, 48 h, read-out: GI
[15] = Cytotoxicity against human HCT116 cells assessed as growth inhibition at 10 uM after 48 hrs by SRB assay; format: functional; details: HCT-116, 48 h, read-out: GI
[16] = Cytotoxicity against human HCT15 cells assessed as growth inhibition at 10 uM after 48 hrs by SRB assay; format: functional; details: HCT-15, 48 h, read-out: GI
KM12 [17] = assay: Cytotoxicity against human KM12 cells assessed as growth inhibition at 10 uM after 48 hrs by SRB assay; format: functional; details: KM12, 48 h, read-out: GI
[18] = Cytotoxicity against human SF539 cells assessed as growth inhibition at 10 uM after 48 hrs by SRB assay; format: functional; details: SF-539, 48 h, read-out: GI
[19] = Cytotoxicity against human SNB19 cells assessed as growth inhibition at 10 uM after 48 hrs by SRB assay; format: functional; details: SNB-19, 48 h, read-out: GI
U-251 = assay: Cytotoxicity against human U251 cells assessed as growth inhibition at 10 uM after 48 hrs by SRB assay; format: functional; details: U-251, 48 h, read-out: GI
Malme-3M = assay: Cytotoxicity against human MALME-3M cells assessed as growth inhibition at 10 uM after 48 hrs by SRB assay; format: functional; details: read-out: GI
M14 = assay: Cytotoxicity against human M14 cells assessed as growth inhibition at 10 uM after 48 hrs by SRB assay; format: functional; details: M14, 48 h, read-out: GI
SK-MEL-28 [20] = assay: Cytotoxicity against human SK-MEL-28 cells assessed as growth inhibition at 10 uM after 48 hrs by SRB assay; format: functional; details: SK-MEL-28, 48 h, read-out: GI
[21] = Cytotoxicity against human IGROV1 cells assessed as growth inhibition at 10 uM after 48 hrs by SRB assay; format: functional; details: IGROV-1, 48 h, read-out: GI
[22] = Cytotoxicity against human OVCAR8 cells assessed as growth inhibition at 10 uM after 48 hrs by SRB assay; format: functional; details: OVCAR-8, 48 h, read-out: GI
[23] = Cytotoxicity against human NCI-ADR-RES cells assessed as growth inhibition at 10 uM after 48 hrs by SRB assay; format: functional; details: read-out: GI
A498 = assay: Cytotoxicity against human A498 cells assessed as growth inhibition at 10 uM after 48 hrs by SRB assay; format: functional; details: A498, 48 h, read-out: GI
[24] = Cytotoxicity against human RXF393 cells assessed as growth inhibition at 10 uM after 48 hrs by SRB assay; format: functional; details: RXF 393, 48 h, read-out: GI
[25] = Cytotoxicity against human UO31 cells assessed as growth inhibition at 10 uM after 48 hrs by SRB assay; format: functional; details: UO-31, 48 h, read-out: GI
[26] = Cytotoxicity against human DU145 cells assessed as growth inhibition at 10 uM after 48 hrs by SRB assay; format: functional; details: DU-145, 48 h, read-out: GI
[27] = Cytotoxicity against human Hs578T cells assessed as growth inhibition at 10 uM after 48 hrs by SRB assay; format: functional; details: Hs-578T, read-out: GI
[28] = Cytotoxicity against human BT549 cells assessed as growth inhibition at 10 uM after 48 hrs by SRB assay; format: functional; details: BT-549, 48 h, read-out: GI
T47D [29] = assay: Cytotoxicity against human T47D cells assessed as growth inhibition at 10 uM after 48 hrs by SRB assay; format: functional; details: read-out: GI

C=C1CC[C@@H]2[C@](C)(COC(C)=O)[C@H](OC(C)=O)CC[C@@]2(C)[C@@H]1CC(NCc1cccc(Cl)c1)C1=CCOC1=O (mixture of isomers)
Activity [1]: 21.89% | Activity (SR): 11.54% | Activity (A549): 54.21% | Activity (NCI-H226): 46.32% | Activity (NCI-H460 [2]): 34.79% | Activity [3]: 35.94% | Activity (KM12 [4]): 46.76% | Activity [5]: 55.56% | Activity [6]: 85.86% | Activity (SK-MEL-28 [7]): 76.6% | Activity [8]: 47.44% | Activity (ACHN): 41.58% | Activity [9]: 48.33% | Activity (SN12C): 62.07% | Activity [10]: 81.85% | Activity (MCF7): 42.95% | Activity (MDA-MB-231): 65% | Activity [11]: 49.66% | Activity (T47D [12]): 50.73% | inhibition of growth at 10 µM (K562): 81.5% | inhibition of growth at 10 µM (EKVX): 22.1% | inhibition of growth at 10 µM [13]: 33.7% | inhibition of growth at 10 µM (NCI-H460 [14]): 65.2% | inhibition of growth at 10 µM (NCI-H522): 47.5% | inhibition of growth at 10 µM [15]: 64.1% | inhibition of growth at 10 µM [16]: 62.3% | inhibition of growth at 10 µM (KM12 [17]): 53.2% | inhibition of growth at 10 µM [18]: 25.9% | inhibition of growth at 10 µM [19]: 44.4% | inhibition of growth at 10 µM (U-251): 69.1% | inhibition of growth at 10 µM (Malme-3M): 23.9% | inhibition of growth at 10 µM (M14): 45% | inhibition of growth at 10 µM (SK-MEL-28 [20]): 23.4% | inhibition of growth at 10 µM [21]: 35.9% | inhibition of growth at 10 µM [22]: 57.3% | inhibition of growth at 10 µM [23]: 39.7% | inhibition of growth at 10 µM (A498): 35.2% | inhibition of growth at 10 µM [24]: 49.5% | inhibition of growth at 10 µM [25]: 53.1% | inhibition of growth at 10 µM [26]: 18.1% | inhibition of growth at 10 µM [27]: 5.65% | inhibition of growth at 10 µM [28]: 50.3% | inhibition of growth at 10 µM (T47D [29]): 49.3%
